Source: ChEMBL document CHEMBL3244218, “beta-Adrenergic blocking agents with acute antihypertensive activity” (1979)

How the values were obtained:
Canis familiaris [1] = assay: In-vivo beta-adrenergic blocking activity in iv dosed mongrel dog assessed as blockade of isoproterenol-induced hypotension by measuring mean arterial pressure; type: functional; settings: Canis lupus familiaris, Artery
Canis familiaris [2] = assay: In-vivo beta-adrenergic blocking activity in iv dosed mongrel dog assessed as blockade of isoproterenol-induced tachycardia by measuring heart rate; type: functional; settings: Canis lupus familiaris
Canis familiaris [3] = assay: In-vivo beta-adrenergic blocking activity in iv dosed mongrel dog assessed as blockade of isoproterenol-induced bronchodilation by measuring pulmonary pressure; type: functional; settings: Canis lupus familiaris
Rattus norvegicus [4] = assay: Antihypertensive activity in spontaneously hypertensive rat assessed as maximum fall in mean arterial pressure at 20 mg/kg, po; type: functional, Artery
Rattus norvegicus [5] = assay: Antihypertensive activity in spontaneously hypertensive rat assessed as maximum fall in mean arterial pressure at 1.25 mg/kg, po; type: functional, Artery
Rattus norvegicus [6] = assay: Antihypertensive activity in spontaneously hypertensive rat assessed as maximum fall in mean arterial pressure at 5 mg/kg, po; type: functional, Artery
Canis familiaris [7] = species on record: Canis familiaris; assay: Peripheral vasodilating activity in mongrel dog assessed as increase in iliac blood flow at 1600 ug, ia; type: functional, Canis lupus familiaris, Artery
Canis familiaris [8] = species on record: Canis familiaris; assay: Peripheral vasodilating activity in mongrel dog assessed as increase in iliac blood flow at 250 ug, ia; type: functional, Canis lupus familiaris, Artery
Canis familiaris [9] = assay: Peripheral vasodilating activity in mongrel dog assessed as increase in iliac blood flow at 1600 ug, ia in presence of isoproterenol and 1000 ug/kg timolol; type: functional, Canis lupus familiaris, Artery
Canis familiaris [10] = assay: Peripheral vasodilating activity in mongrel dog assessed as increase in iliac blood flow at 1600 ug, ia in presence of isoproterenol and 2000 ug/kg timolol; type: functional, Canis lupus familiaris, Artery
Canis familiaris [11] = assay: Peripheral vasodilating activity in mongrel dog assessed as increase in iliac blood flow at 1600 ug, ia in presence of isoproterenol and 500 ug/kg timolol; type: functional, Canis lupus familiaris, Artery
Canis familiaris [12] = assay: Peripheral vasodilating activity in mongrel dog assessed as increase in iliac blood flow at 32 ug, ia in presence of isoproterenol and 2000 ug/kg timolol; type: functional, Canis lupus familiaris, Artery
Rattus norvegicus [13] = assay: Antihypertensive activity in spontaneously hypertensive rat assessed as maximum fall in mean arterial pressure at 0.312 mg/kg, po; type: functional, Artery
Canis familiaris [14] = species on record: Canis familiaris; assay: Peripheral vasodilating activity in mongrel dog assessed as increase in iliac blood flow at 8 ug, ia; type: functional, Canis lupus familiaris, Artery
Canis familiaris [15] = species on record: Canis familiaris; assay: Peripheral vasodilating activity in mongrel dog assessed as increase in iliac blood flow at 16 ug, ia; type: functional, Canis lupus familiaris, Artery
Canis familiaris [16] = species on record: Canis familiaris; assay: Peripheral vasodilating activity in mongrel dog assessed as increase in iliac blood flow at 32 ug, ia; type: functional, Canis lupus familiaris, Artery
Canis familiaris [17] = assay: Peripheral vasodilating activity in mongrel dog assessed as increase in iliac blood flow at 8 ug, ia in presence of isoproterenol and 2000 ug/kg timolol; type: functional, Canis lupus familiaris, Artery
Canis familiaris [18] = assay: Peripheral vasodilating activity in mongrel dog assessed as increase in iliac blood flow at 16 ug, ia in presence of isoproterenol and 2000 ug/kg timolol; type: functional, Canis lupus familiaris, Artery

Row | Compound | ED50 (Canis familiaris [1]) | ED50 (Canis familiaris [2]) | ED50 (Canis familiaris [3]) | Activity (Rattus norvegicus [4]) | Activity (Rattus norvegicus [5]) | Activity (Rattus norvegicus [6]) | Activity (Canis familiaris [7]) | Activity (Canis familiaris [8]) | Activity (Canis familiaris [9]) | Activity (Canis familiaris [10]) | Activity (Canis familiaris [11]) | Activity (Canis familiaris [12]) | Activity (Rattus norvegicus [13]) | Activity (Canis familiaris [14]) | Activity (Canis familiaris [15]) | Activity (Canis familiaris [16]) | Activity (Canis familiaris [17]) | Activity (Canis familiaris [18])
1 | CC(C)(C)NCC(O)COc1ccc(-c2ncc(C(N)=O)[nH]2)cc1 (racemic) | > 1 mg/kg | 0.262 mg/kg | > 1 mg/kg | 14 mmHg |  |  |  |  |  |  |  |  |  |  |  |  |  | 
2 | CC(C)(C)NCC(O)COc1cc(Cl)c(-c2ncc(C(F)(F)F)[nH]2)c(Cl)c1 (racemic) |  |  |  |  | 16 mmHg | 30 mmHg |  |  |  |  |  |  |  |  |  |  |  | 
3 | CC(C)(C)NCC(O)COc1ccc(-c2ncc(-c3ccc(Cl)cc3)[nH]2)cc1 (racemic) | 0.137 mg/kg | 0.0562 mg/kg | 0.0827 mg/kg | 32 mmHg | 32 mmHg | 35 mmHg |  |  |  |  |  |  |  |  |  |  |  | 
4 | Cc1cc(-c2ncc(C(F)(F)F)[nH]2)ccc1OCC(O)CNC(C)(C)C (racemic) | 0.022 mg/kg | 0.011 mg/kg |  |  | 23 mmHg | 36 mmHg | 52 mL/min | 6 mL/min | 20 mL/min |  |  |  |  |  |  |  |  | 
5 | CC(C)(C)NCC(O)COc1ccc(-c2ncc(-c3c(F)c(F)c(F)c(F)c3F)[nH]2)cc1 (racemic) | 0.3 mg/kg | 0.082 mg/kg |  | 40 mmHg | 21 mmHg | 19 mmHg | 56 mL/min |  |  | 48 mL/min |  |  |  |  |  |  |  | 
6 | Cc1c[nH]c(-c2ccc(OCC(O)CNC(C)(C)C)cc2)n1 (racemic) | > 1 mg/kg | 0.106 mg/kg |  | 27 mmHg |  | 6 mmHg | 101 mL/min |  |  | 62 mL/min | 75 mL/min |  |  |  |  |  |  | 
7 | CC(C)(C)NCC(O)COc1ccc(-c2ncc(C(F)(F)F)[nH]2)cc1Cl (racemic) | 0.017 mg/kg | 0.016 mg/kg | 0.015 mg/kg | 6 mmHg |  | 5 mmHg | 17 mL/min | 5 mL/min |  |  |  |  |  |  |  |  |  | 
8 | CC(C)(C)NCC(O)COc1ccc(-c2ncc(-c3ccccc3)[nH]2)cc1 (racemic) | 0.083 mg/kg | 0.035 mg/kg | 0.095 mg/kg | 54 mmHg | 20 mmHg | 30 mmHg | 46 mL/min |  |  | 42 mL/min |  |  |  |  |  |  |  | 
9 | CC(C)(C)NCC(O)COc1ccc(-c2ncc[nH]2)cc1 (racemic) | > 1 mg/kg | 0.098 mg/kg | > 1 mg/kg | 18 mmHg |  |  | 36 mL/min |  |  |  | 31 mL/min |  |  |  |  |  |  | 
10 | COc1ccc(-c2cnc(-c3ccc(OC[C@@H](O)CNC(C)(C)C)cc3)[nH]2)cc1.O=C(O)/C=C\C(=O)O | 0.525 mg/kg | 0.027 mg/kg | 0.48 mg/kg | 39 mmHg | 10 mmHg | 28 mmHg | 26 mL/min |  |  | 16 mL/min |  |  |  |  |  |  |  | 
11 | Cc1c(OCC(O)CNC(C)(C)C)ccc(-c2ncc(C(F)(F)F)[nH]2)c1C (racemic) | 0.582 mg/kg | 0.071 mg/kg | 0.055 mg/kg | 30 mmHg | 27 mmHg | 24 mmHg | 23 mL/min |  | 19 mL/min |  |  |  |  |  |  |  |  | 
12 | Cc1cc(OCC(O)CNC(C)(C)C)ccc1-c1ncc(C(F)(F)F)[nH]1 (racemic) | 0.361 mg/kg | 0.0227 mg/kg | 0.0298 mg/kg | 44 mmHg | 32 mmHg | 43 mmHg | 27 mL/min | 11 mL/min |  |  |  |  |  |  |  |  |  | 
13 | CC(C)(C)NCC(O)COc1ccc(-c2ncc(-c3ccco3)[nH]2)cc1 (racemic) | 0.3 mg/kg | 0.015 mg/kg |  | 35 mmHg |  |  | 80 mL/min |  |  | 40 mL/min |  |  |  |  |  |  |  | 
14 | COC(=O)c1cnc(-c2ccc(OCC(O)CNC(C)(C)C)cc2)[nH]1 (racemic) | > 1 mg/kg | 0.04 mg/kg |  | 36 mmHg |  | 17 mmHg | 80 mL/min |  |  | 29 mL/min |  |  |  |  |  |  |  | 
15 | CC(C)(C)NCC(O)COc1ccc(-c2nc(C(F)(F)F)c[nH]2)cc1 (racemic) | 0.042 mg/kg | 0.0076 mg/kg | 0.071 mg/kg |  | 36 mmHg | 49 mmHg | 79 mL/min |  |  | 15 mL/min |  | 15 mL/min | 21 mmHg | 52 mL/min | 58 mL/min | 63 mL/min | 10 mL/min | 17 mL/min
16 | CC(C)(C)NCC(O)COc1ccc(-c2ncc(C(F)(F)F)[nH]2)c2ccccc12 (racemic) | > 1 mg/kg | 0.186 mg/kg |  | 40 mmHg |  | 21 mmHg | 35 mL/min |  | 40 mL/min |  |  |  |  |  |  |  |  | 
